Assay results reported in patent US8952024B2, “Herbicidal pyrimidone derivatives” (E I du Pont de Nemours and Company, priority 2009, dated 2015).

Assays:
Assay type in all cases: in vivo
[1] = system: barnyardgrass (Echinochloa crus-galli); assay: Test A pre-/postemergence plant response
In short: (§1)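 Greenhouse trial, ~10 days. Soil (loam/sand) sprayed preemergence after seeding; emerged plants (1–2 leaf, 2–10 cm) sprayed postemergence in parallel. Response = visual injury vs untreated control, 0–100.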

[2] = system: corn (Zea mays); assay: Test A pre-/postemergence plant response
In short: as §1

[3] = system: giant foxtail (Setaria faberii); assay: Test A pre-/postemergence plant response
In short: as §1

[4] = system: large crabgrass (Digitaria sanguinalis); assay: Test A pre-/postemergence plant response
In short: as §1

[5] = system: morningglory (Ipomoea spp.); assay: Test A pre-/postemergence plant response
In short: as §1

[6] = system: pigweed (Amaranthus retroflexus); assay: Test A pre-/postemergence plant response
In short: as §1

[7] = system: velvetleaf (Abutilon theophrasti); assay: Test A pre-/postemergence plant response
In short: as §1

[8] = system: wheat (Triticum aestivum); assay: Test A pre-/postemergence plant response
In short: as §1

[9] = system: canarygrass (Phalaris minor); assay: Test B postemergence plant response; details: for Canarygrass plant response rating (0 to 100 scale): 62 g ai/ha, 0 is no effect, 13 to 15 days
In short: (§2)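 Visual ratings from 0 (no effect) to 100 (complete control), made against controls 13–15 days after treatment, kept in a greenhouse. Compounds were applied postemergence to potted plants at the 1- to 4-leaf stage (2–18 cm).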

[10] = system: chickweed (Stellaria media); assay: Test B postemergence plant response; details: for Chickweed plant response rating (0 to 100 scale): 62 g ai/ha, 0 is no effect, 13 to 15 days
In short: as §2

[11] = system: windgrass (Apera spica-venti); assay: Test B postemergence plant response; details: for Windgrass plant response rating (0 to 100 scale): 62 g ai/ha, 0 is no effect, 13 to 15 days
In short: as §2

[12] = system: winter barley (Hordeum vulgare); assay: Test B postemergence plant response; details: for Barley plant response rating (0 to 100 scale): 62 g ai/ha, 0 is no effect, 13 to 15 days
In short: as §2

[13] = Postemergence, 125 g ai/ha, 0 to 100 scale where 0 is no effect and 100 is complete control
[14] = Postemergence, 500 g ai/ha, 0 to 100 scale, 0 = no effect, 100 = complete control, approx. ten days
[15] = Preemergence, 125 g ai/ha, 0 to 100 scale, 0 = no effect, 100 = complete control
[16] = Preemergence, 500 g ai/ha, visual injury, 0 to 100 scale (0 no effect, 100 complete control), approx. ten days
[17] = 31 g ai/ha, postemergence, scale 0 to 100, 0 is no effect, 100 is complete control
[18] = postemergence, 100 is complete control
[19] = Postemergence, 125 g ai/ha, visual rating after 13 to 15 days, scale 0 (no effect) to 100 (complete control)
[20] = Postemergence, 250 g ai/ha, scale 0 to 100 (0 no effect, 100 complete control)

CC(C)CC(=O)OC1=C(C(=O)c2cnc(-c3ccccc3)n(-c3ccccc3)c2=O)C(=O)CCC1 [Compound 83]
98: Plant response rating, Chickweed [10, 19]
25: Plant response rating, Canarygrass [9, 19] | Plant response rating, Canarygrass [9, 20]
90: Plant response rating, Barnyardgrass [1, 14] | Plant response rating, Barnyardgrass [1, 16] | Plant response rating, Foxtail, Giant [3, 14] | Plant response rating, Foxtail, Giant [3, 16] | Plant response rating, Crabgrass, Large [4, 14] | Plant response rating, Pigweed [6, 13] | Plant response rating, Chickweed [10, 17] | Chickweed plant response rating (0 to 100 scale) [10, 18]
100: Plant response rating, Crabgrass, Large [4, 16] | Plant response rating, Morningglory [5, 13] | Plant response rating, Morningglory [5, 14] | Plant response rating, Pigweed [6, 14] | Plant response rating, Pigweed [6, 16] | Plant response rating, Velvetleaf [7, 13] | Plant response rating, Velvetleaf [7, 14] | Plant response rating, Velvetleaf [7, 16] | Plant response rating, Chickweed [10, 20]
30: Plant response rating, Barnyardgrass [1, 15] | Plant response rating, Corn [2, 14] | Plant response rating, Wheat [8, 16] | Plant response rating, Windgrass [11, 20]
60: Plant response rating, Morningglory [5, 16]
20: Plant response rating, Corn [2, 16] | Plant response rating, Morningglory [5, 15] | Plant response rating, Canarygrass [9, 17] | Canarygrass plant response rating (0 to 100 scale) [9, 18]
10: Windgrass plant response rating (0 to 100 scale) [11, 18]
40: Plant response rating, Foxtail, Giant [3, 15]
70: Plant response rating, Barnyardgrass [1, 13] | Plant response rating, Foxtail, Giant [3, 13] | Plant response rating, Crabgrass, Large [4, 15] | Plant response rating, Velvetleaf [7, 15]
0: Plant response rating, Corn [2, 13] | Plant response rating, Corn [2, 15] | Plant response rating, Wheat [8, 13] | Plant response rating, Wheat [8, 14] | Plant response rating, Wheat [8, 15] | Plant response rating, Barley [12, 17]
80: Plant response rating, Crabgrass, Large [4, 13] | Plant response rating, Pigweed [6, 15]
5: Plant response rating, Windgrass [11, 17] | Barley plant response rating (0 to 100 scale) [12, 18] | Plant response rating, Barley [12, 19] | Plant response rating, Barley [12, 20]

COCCn1c(-c2ccccc2)ncc(C(=O)C2=C(O)CCCC2=O)c1=O [Compound 85]
10: Plant response rating, Corn [2, 13] | Plant response rating, Corn [2, 16] | Barley plant response rating (0 to 100 scale) [12, 18]
70: Plant response rating, Foxtail, Giant [3, 13] | Plant response rating, Velvetleaf [7, 15] | Windgrass plant response rating (0 to 100 scale) [11, 18]
5: Plant response rating, Barley [12, 17]
20: Plant response rating, Barley [12, 19] | Plant response rating, Barley [12, 20]
85: Plant response rating, Chickweed [10, 17]
60: Plant response rating, Canarygrass [9, 20]
100: Plant response rating, Barnyardgrass [1, 16] | Plant response rating, Crabgrass, Large [4, 15] | Plant response rating, Crabgrass, Large [4, 16] | Plant response rating, Morningglory [5, 13] | Plant response rating, Morningglory [5, 14] | Plant response rating, Pigweed [6, 13] | Plant response rating, Pigweed [6, 14] | Plant response rating, Velvetleaf [7, 13] | Plant response rating, Velvetleaf [7, 14]
95: Chickweed plant response rating (0 to 100 scale) [10, 18] | Plant response rating, Chickweed [10, 19] | Plant response rating, Windgrass [11, 20]
90: Plant response rating, Barnyardgrass [1, 13] | Plant response rating, Barnyardgrass [1, 14] | Plant response rating, Foxtail, Giant [3, 14] | Plant response rating, Foxtail, Giant [3, 16] | Plant response rating, Crabgrass, Large [4, 13] | Plant response rating, Crabgrass, Large [4, 14]
98: Plant response rating, Chickweed [10, 20]
0: Plant response rating, Corn [2, 15] | Plant response rating, Wheat [8, 13] | Plant response rating, Wheat [8, 15]
80: Plant response rating, Corn [2, 14] | Plant response rating, Morningglory [5, 16]
55: Plant response rating, Canarygrass [9, 19]
35: Plant response rating, Canarygrass [9, 17]
50: Plant response rating, Barnyardgrass [1, 15] | Plant response rating, Morningglory [5, 15]
40: Plant response rating, Wheat [8, 14] | Plant response rating, Wheat [8, 16] | Canarygrass plant response rating (0 to 100 scale) [9, 18] | Plant response rating, Windgrass [11, 17]

CCCCn1c(-c2ccccc2)ncc(C(=O)C2=C(O)CCCC2=O)c1=O [Compound 86]
80: Plant response rating, Foxtail, Giant [3, 13] | Plant response rating, Canarygrass [9, 19] | Plant response rating, Chickweed [10, 17]
40: Barley plant response rating (0 to 100 scale) [12, 18]
90: Plant response rating, Barnyardgrass [1, 13] | Plant response rating, Barnyardgrass [1, 14] | Plant response rating, Foxtail, Giant [3, 14] | Plant response rating, Crabgrass, Large [4, 13] | Plant response rating, Crabgrass, Large [4, 14] | Plant response rating, Morningglory [5, 13] | Plant response rating, Morningglory [5, 14]
65: Plant response rating, Barley [12, 20]
95: Chickweed plant response rating (0 to 100 scale) [10, 18] | Plant response rating, Chickweed [10, 19] | Plant response rating, Windgrass [11, 20]
30: Plant response rating, Windgrass [11, 17] | Plant response rating, Barley [12, 17]
0: Plant response rating, Corn [2, 13] | Plant response rating, Morningglory [5, 15] | Plant response rating, Wheat [8, 13]
85: Plant response rating, Canarygrass [9, 20]
100: Plant response rating, Barnyardgrass [1, 16] | Plant response rating, Foxtail, Giant [3, 16] | Plant response rating, Pigweed [6, 13] | Plant response rating, Pigweed [6, 14] | Plant response rating, Velvetleaf [7, 13] | Plant response rating, Velvetleaf [7, 14] | Plant response rating, Velvetleaf [7, 16]
50: Plant response rating, Corn [2, 14] | Plant response rating, Wheat [8, 14]
98: Plant response rating, Chickweed [10, 20]
20: Plant response rating, Barnyardgrass [1, 15] | Plant response rating, Canarygrass [9, 17] | Canarygrass plant response rating (0 to 100 scale) [9, 18]
60: Plant response rating, Morningglory [5, 16] | Windgrass plant response rating (0 to 100 scale) [11, 18] | Plant response rating, Barley [12, 19]

O=C1CCCC(OC(=O)C2CC2)=C1C(=O)c1cnc(-c2ccccc2)n(-c2ccccc2)c1=O [Compound 88]
70: Plant response rating, Morningglory [5, 16] | Canarygrass plant response rating (0 to 100 scale) [9, 18] | Plant response rating, Windgrass [11, 20]
75: Plant response rating, Chickweed [10, 17]
90: Plant response rating, Barnyardgrass [1, 14] | Plant response rating, Barnyardgrass [1, 16] | Plant response rating, Foxtail, Giant [3, 14] | Plant response rating, Crabgrass, Large [4, 13] | Plant response rating, Crabgrass, Large [4, 14] | Plant response rating, Morningglory [5, 13] | Plant response rating, Canarygrass [9, 20]
50: Plant response rating, Morningglory [5, 15]
60: Plant response rating, Corn [2, 14] | Plant response rating, Foxtail, Giant [3, 13] | Plant response rating, Canarygrass [9, 17] | Windgrass plant response rating (0 to 100 scale) [11, 18]
95: Plant response rating, Chickweed [10, 19] | Plant response rating, Chickweed [10, 20]
40: Plant response rating, Windgrass [11, 17] | Plant response rating, Barley [12, 19]
100: Plant response rating, Foxtail, Giant [3, 16] | Plant response rating, Morningglory [5, 14] | Plant response rating, Pigweed [6, 13] | Plant response rating, Pigweed [6, 14] | Plant response rating, Velvetleaf [7, 13] | Plant response rating, Velvetleaf [7, 14] | Plant response rating, Velvetleaf [7, 16]
85: Chickweed plant response rating (0 to 100 scale) [10, 18]
0: Plant response rating, Corn [2, 13] | Plant response rating, Corn [2, 15] | Plant response rating, Corn [2, 16] | Plant response rating, Wheat [8, 13] | Plant response rating, Wheat [8, 14] | Plant response rating, Wheat [8, 15]
10: Plant response rating, Barnyardgrass [1, 15] | Plant response rating, Wheat [8, 16]
30: Plant response rating, Barley [12, 17] | Barley plant response rating (0 to 100 scale) [12, 18]
80: Plant response rating, Barnyardgrass [1, 13] | Plant response rating, Velvetleaf [7, 15] | Plant response rating, Canarygrass [9, 19] | Plant response rating, Barley [12, 20]
